Usually Kd stands for a measure of binding affinity in units of concentration.

Data on 5 molecules can be found in BindingDB's records for doi:10.1021/acs.biochem.6b01020 (University of Delaware, 2017).

Square brackets hold non-standard residues; d marks the D form. Peptide text beside a SMILES is read from it. * marks the point of attachment. C(CF3)3 = FC(F)(F)C(C(F)(F)F)(C(F)(F)F)*; Hyp = O=C(O)[C@@H]1C[C@@H](O)CN1; hSer = N[C@@H](CCO)C(=O)O

The target of the assay is T1, Estradiol-bound Estrogen receptor [255-595] (Homo sapiens, UniProt P03372).
T1 construct: 255-595
T1 sequence (P03372 whole entry): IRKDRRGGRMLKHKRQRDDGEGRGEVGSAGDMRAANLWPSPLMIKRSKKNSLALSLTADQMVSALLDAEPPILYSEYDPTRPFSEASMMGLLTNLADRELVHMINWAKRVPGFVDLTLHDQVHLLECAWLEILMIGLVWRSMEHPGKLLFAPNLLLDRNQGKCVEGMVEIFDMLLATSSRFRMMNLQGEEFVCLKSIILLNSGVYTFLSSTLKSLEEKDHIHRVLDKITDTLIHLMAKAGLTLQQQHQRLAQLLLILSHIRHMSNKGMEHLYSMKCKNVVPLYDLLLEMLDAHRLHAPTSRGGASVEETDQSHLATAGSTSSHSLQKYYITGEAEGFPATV
Kind of assay: Fluorescence Polarization Assay. The settings on record: pH 7.4; 25 °C. Here is the method:
Peptide concentrations were determined by the absorbance at 492 nm, using a fluorescein extinction coefficient of 83000. Fluorescence polarization assays were conducted in 96-well round-bottom black opaque plates (Costar) using 2-fold serial dilutions of the ERα LBD, to final protein concentrations from 10 to 0.0098 μM, in PBS containing 0.1 mM DTT, 20 μM 17β-estradiol, 0.04 mg/mL BSA, and 100 nM fluorescein-labeled peptide. Solutions were incubated in the dark for 30 min at room temperature before being read on a PerkinElmer Fusion plate reader using a 485 nm fluorescein excitation filter and a 535 nm emission filter with a polarizer.
For orientation: Polarisation of emitted light reports the rotation of a fluorescent probe.
In the case of `CC[C@H](C)[C@H](NC(=O)[C@H](CCCCN)NC(=O)[C@H](Cc1cnc[nH]1)NC(=O)[C@H](CCCNC(=N)N)NC(=O)[C@H](CCC(=O)O)NC(=O)[C@@H](NC(=O)[C@H](CC(C)C)NC(=O)[C@@H](N)CS)[C@@H](C)O)C(=O)N[C@H](CCOC(C(F)(F)F)(C(F)(F)F)C(F)(F)F)C(=O)N[C@@H](Cc1cnc[nH]1)C(=O)N[C@@H](CCCNC(=N)N)C(=O)N[C@@H](CC(C)C)C(=O)N[C@@H](CC(C)C)C(=O)N[C@@H](CCC(N)=O)C(=O)N[C@@H](CCC(=O)O)C(=O)O`, the dissociation constant (Kd) was 43 µM. Turning to `CC[C@H](C)[C@H](NC(=O)[C@H](CCCCN)NC(=O)[C@H](Cc1cnc[nH]1)NC(=O)[C@H](CCCNC(=N)N)NC(=O)[C@H](CCC(=O)O)NC(=O)[C@@H](NC(=O)[C@H](CC(C)C)NC(=O)[C@@H](N)CS)[C@@H](C)O)C(=O)N[C@@H](CC(C)C)C(=O)N[C@@H](Cc1cnc[nH]1)C(=O)N[C@@H](CCCNC(=N)N)C(=O)N[C@@H](CCOC(C(F)(F)F)(C(F)(F)F)C(F)(F)F)C(=O)N[C@@H](CC(C)C)C(=O)N[C@@H](CCC(N)=O)C(=O)N[C@@H](CCC(=O)O)C(=O)O` (H-CLTERHKILHR[hSer](C(CF3)3)LQE-OH), the affinity, expressed as Kd, was 2.2 µM. On to `CC[C@H](C)[C@H](NC(=O)[C@H](CCCCN)NC(=O)[C@H](Cc1cnc[nH]1)NC(=O)[C@H](CCCNC(=N)N)NC(=O)[C@H](CCC(=O)O)NC(=O)[C@@H](NC(=O)[C@H](CC(C)C)NC(=O)[C@@H](N)CS)[C@@H](C)O)C(=O)N1C[C@H](OC(C(F)(F)F)(C(F)(F)F)C(F)(F)F)C[C@H]1C(=O)N[C@@H](Cc1cnc[nH]1)C(=O)N[C@@H](CCCNC(=N)N)C(=O)N[C@@H](CC(C)C)C(=O)N[C@@H](CC(C)C)C(=O)N[C@@H](CCC(N)=O)C(=O)N[C@@H](CCC(=O)O)C(=O)O` (H-CLTERHKI[Hyp](C(CF3)3)HRLLQE-OH), for which the Kd was greater than 150 µM. The molecule `CC(C)C[C@H](NC(=O)[C@H](CC(C)C)NC(=O)[C@H](CCCNC(=N)N)NC(=O)[C@H](Cc1cnc[nH]1)NC(=O)[C@H](CC(C)C)NC(=O)[C@H](CCOC(C(F)(F)F)(C(F)(F)F)C(F)(F)F)NC(=O)[C@H](CCCCN)NC(=O)[C@H](Cc1cnc[nH]1)NC(=O)[C@H](CCCNC(=N)N)NC(=O)[C@H](CCC(=O)O)NC(=O)[C@@H](NC(=O)[C@H](CC(C)C)NC(=O)[C@@H](N)CS)[C@@H](C)O)C(=O)N[C@@H](CCC(N)=O)C(=O)N[C@@H](CCC(=O)O)C(=O)O` [CLTERHK(Hse(C4F9))LHRLLQE] (H-CLTERHK[hSer](C(CF3)3)LHRLLQE-OH) had a Kd of 7.1 µM. H-CLTERHKILHRLLQE-OH: the Kd was determined as 1 µM.
